Experimental data taken from patent US5349127A, “Expression of herbicide metabolizing cytochromes P450” (priority 1992, dated 1994).

Experiments:
[1] = tested on: S. lividans pCAO200SU1-FeS-B#9; assay: Sulfonylurea metabolism by washed cell suspension (Examples 6-9); format: in vitro ADME, Streptomyces lividans
S. lividans PH3816 = assay: Metabolism of 10001 by strains transformed with pCS325 (Example 15); format: in vitro ADME, Streptomyces lividans; conditions: substrate 10001
Description: S. griseolus PH2003, S. griseus PH4001, S. ambofaciens PH4002, and S. lividans JI1326 were transformed with the plasmid pPAT108. The transformed S. griseolus strain, PH3826, was cultured for 24 hours in 150 mls of sporulation broth with 5 ug/ml thiostrepton. The transformed S. griseus strain, PH3832, and the transformed S. ambofaciens strain, PH3834, were cultured for 24 hours in 150 mls of trypticase soy broth with 5 ug/ml thiostrepton. The transformed S. lividans strain, PH3822, was similarly cultured in 150 mls of YEME broth with 5 ug/ml thiostrepton. Three hours before harvesting the cells, 50 mls of fresh medium of the same type with 5 ug/ml thiostrepton was added to each culture. The cells from each of the cultures were harvested by centrifugation, washed twice with 50 mMMOPS, pH7.2 and resuspended in five cell volumes of MOPS containing 0.2% glucose and 120 ug/ml of the sulfonylurea 10001. The cell suspensions were incubated at 30° C. with shaking and aliquots were removed at 0.5, 1, 2 and 4 hours. The supernatant of each aliquot was analyzed by HPLC and the concentration of the sulfonylurea compound 10001 and its metabolites 10002 and 10003 were determined.
S. griseolus PH2003, S. griseus PH4001, S. ambofaciens PH4002, and S. lividans JI1326 were transformed with the plasmid pCS325. Cells of the transformed strains of S. griseolus PH3809, S. griseus PH3817, S. ambofaciens PH3818, and S. lividans PH3816, were grown and treated as described in Example 14, and the concentrations of the sulfonylurea compound 10001 and its metabolites 10002 and 10003 were determined.

S. lividans pCAO200 = assay: Sulfonylurea metabolism by washed cell suspension (Examples 6-9); format: in vitro ADME, Streptomyces lividans
[2] = tested on: S. lividans pCAO200SU1#12; assay: as above; format: in vitro ADME, Streptomyces lividans
[3] = Incubation buffer without cells, time 0 (Examples 5-9, 11, 12); format: in vitro ADME; conditions: no cells, 0 h
Description: (§1) A 100 ml culture of S. griseolus ATCC 11796 in sporulation broth and a 50 ml culture of S. lividans transformed with pCAO400 in YEME broth were prepared and incubated for 24 hours as described. At that time, the S. griseolus culture was split into two 50 ml aliquots into two separate flasks and 25 ml of fresh sporulation broth was added to each and 9 mg of […] was added to one of these cultures to induce cytochrome P450SU1 expression. Fresh YEME broth (25 ml) was added to the S. lividans culture. After an additional 6 hours growth at 30° C., the cells in each culture were harvested as described above, washed twice with MOPS (50 mM, pH 7.2) and recentrifuged. The cell pellets were resuspended in four cell volumes of MOPS (50 mM, pH 7.2) containing 0.2% glucose and about 100 μg/ml of 10004. These cell suspensions were incubated at 30° C. with shaking and aliqouts were taken at 2 and 5.5 hours. The supernatant of each aliquot was analyzed by HPLC and the concentrations of the sulfonylurea compound 10004 and its metabolite 10005 were determined.
(§2) S. lividans transformed respectively with pCAO200SU1-FeS-B#9, pCAO200SU#112and pCAO200 were cultured for 36 hours in 400 ml of YEME broth at 30° C. S. griseolus ATCC 11796 was similarly cultured in 400 ml of sporulation broth. Six hours before harvesting the cells, 150 ml of fresh YEME broth was added to the S. lividans cells, and the S. griseolus cells were split into two 200 ml cultures with 100 ml of fresh sporulation broth added to each. 10001 (36 mg) was added to one of the two S. griseolus cultures to induce cytochrome P450SU1. The cells were prepared as described above in Example 5 and the concentrations of the sulfonylurea compound 10006 and its metabolites 10007, 10008 or 10009 were determined.
(§3) S. lividans transformed with pCAO200SU2-FeS-A#11 and S. lividans transformed with pCAO200 were cultured for 36 hours in 400 ml of YEME broth at 30° C. S. griseolus PH2001 (mutant without SU1) was cultured in 400 ml of sporulation broth at 30° C. Nine hours before harvesting the cells, the S. griseolus PH2001 culture was divided into two 200 ml cultures. Both received 100 ml of fresh sporulation broth and one received 36 mg of 10001 to induce cytochrome P450SU2. The cells were prepared as described above in Example 6 and the concentrations of the sulfonylurea compound 10001 and its metabolites 10002 and 10003 were determined.

[4] = tested on: S. griseolus PH2001 induced with 10001; assay: Sulfonylurea metabolism by washed cell suspension (Examples 11-12); format: in vitro ADME, Streptomyces griseolus
Description: as §1, §2, §3

[5] = tested on: S. griseolus PH2001 uninduced; assay: as above; format: in vitro ADME, Streptomyces griseolus
Description: as §1, §2, §3

| SMILES | concentration in supernatant ([1]; substrate 10001, 2 h) | concentration in supernatant ([1]; substrate 10001, 4 h) | concentration in supernatant ([1]; substrate 10001, 6 h) | concentration in supernatant (S. lividans PH3816; 0.5 h) | concentration in supernatant (S. lividans PH3816; 1.0 h) | concentration in supernatant (S. lividans PH3816; 2.0 h) | concentration in supernatant (S. lividans PH3816; 4.0 h) | concentration in supernatant (S. lividans pCAO200; substrate 10001, 2 h) | concentration in supernatant (S. lividans pCAO200; substrate 10001, 4 h) | concentration in supernatant (S. lividans pCAO200; substrate 10001, 6 h) | concentration in supernatant ([2]; substrate 10001, 2 h) | concentration in supernatant ([2]; substrate 10001, 4 h) | concentration in supernatant ([2]; substrate 10001, 6 h) | concentration in supernatant ([3]; Example 8, substrate 10001) | concentration in supernatant ([3]; Example 11, substrate 10001) | concentration in supernatant ([4]; substrate 10001, 2 h) | concentration in supernatant ([4]; substrate 10001, 4 h) | concentration in supernatant ([4]; substrate 10001, 6 h) | concentration in supernatant ([5]; substrate 10001, 2 h) | concentration in supernatant ([5]; substrate 10001, 4 h) | further results |
| --- | --- | --- | --- | --- | --- | --- | --- | --- | --- | --- | --- | --- | --- | --- | --- | --- | --- | --- | --- | --- | --- |
| CCOC(=O)c1ccccc1S(=O)(=O)NC(=O)Nc1nc(O)cc(Cl)n1 [compound 10002, N-[(4-chloro-6-hydroxy-pyrimidin-2-yl)aminocarbonyl]-2-ethoxycarbonylbenzenesulfonamide] | 105 µM | 116 µM | 112 µM | 19 µM | 36 µM | 68 µM | 103 µM | 2 µM | 1 µM | 2 µM | 2 µM | 4 µM | 6 µM |  |  |  |  |  |  |  |  |
| CCOC(=O)c1ccccc1S(=O)(=O)NC(=O)Nc1nc(Cl)cc(OC)n1 [compound 10001, N-[(4-chloro-6-methoxy-pyrimidin-2-yl)aminocarbonyl]-2-ethoxycarbonylbenzenesulfonamide] | 28 µM | 0 µM | 0 µM | 331 µM | 339 µM | 299 µM | 248 µM | 301 µM | 287 µM | 313 µM |  | 276 µM | 276 µM | 291 µM | 279 µM | 286 µM | 256 µM | 234 µM | 271 µM | 264 µM | concentration in supernatant ([5]; substrate 10001, 6 h): 244 µM |
| COc1cc(Cl)nc(NC(=O)NS(=O)(=O)c2ccccc2C(=O)O)n1 [compound 10003, N-[(4-chloro-6-methoxy-pyrimidin-2-yol)aminocarbonyl]-2-carboxybenzenesulfonamide] | 86 µM | 95 µM | 94 µM | 1 µM | 3 µM | 7 µM | 11 µM | 1 µM | 1 µM | 2 µM | 2 µM | 4 µM | 5 µM | 0 µM | 0 µM | 7 µM | 10 µM | 13 µM | 1 µM | 2 µM | concentration in supernatant ([5]; substrate 10001, 6 h): 3 µM |
| COC(=O)c1ccccc1S(=O)(=O)NC(=O)Nc1nc(C)cc(C)n1 [compound 10010, N-[(4,6-dimethylpyrimidin-2-yl)aminocarbonyl]-2-methoxycarbonylbenzenesulfonamide] |  |  |  |  |  |  |  |  |  |  |  |  |  |  |  |  |  |  |  |  | concentration in supernatant ([1]; substrate 10010, 2 h): 35 µM; concentration in supernatant ([1]; substrate 10010, 4 h): 11 µM; concentration in supernatant ([1]; substrate 10010, 6 h): 4 µM; concentration in supernatant ([3]; Example 7, substrate 10010): 87 µM; concentration in supernatant ([3]; Example 12, substrate 10010): 88 µM; concentration in supernatant (S. lividans pCAO200; substrate 10010, 2 h): 90 µM; concentration in supernatant (S. lividans pCAO200; substrate 10010, 4 h): 89 µM; concentration in supernatant (S. lividans pCAO200; substrate 10010, 6 h): 89 µM; concentration in supernatant ([2]; substrate 10010, 2 h): 90 µM; concentration in supernatant ([2]; substrate 10010, 4 h): 85 µM; concentration in supernatant ([2]; substrate 10010, 6 h): 80 µM; concentration in supernatant ([4]; substrate 10010, 2 h): 64 µM; concentration in supernatant ([4]; substrate 10010, 4 h): 56 µM; concentration in supernatant ([4]; substrate 10010, 6 h): 50 µM; concentration in supernatant ([5]; substrate 10010, 2 h): 89 µM; concentration in supernatant ([5]; substrate 10010, 4 h): 88 µM; concentration in supernatant ([5]; substrate 10010, 6 h): 89 µM |
